Data set [1] deals with HOP62. The note with it: HOP62 transfected with Gli1 (efficiency approximately 25%) compared with HOP62 expressing an insertless expression vector. An excerpt: Results from DTP analysis of the NCI-60 screen were independently validated with each cell line to determine which NSCLC cell lines required Hedgehog activity to proliferate.
The test system of a further data set is SK-MEL-28. Kind of data set: NCI-60 panel screen, growth inhibition. In kind it is cell-based, human. The note with it: Melanoma. The source says:
(§1) The NCI-60 panel of cell lines includes cells derived from melanoma, leukemia, and cancers of the lung, central nervous system, kidney, ovary, colon, breast and prostate. Advantageously, the NCI-60 panel has been screened with a plurality of compounds with the drug concentration resulting in 50% growth inhibition (GI50 determined for each cell line, so that a distinct “fingerprint” signature has been created for each small-molecule tested. Further, DNA microarray analyses have been performed on the NCI-60 panel, allowing for gene expression profile comparisons between drug-sensitive cell lines and drug-insensitive cell lines in response to a particular agent.
(§2) Results from the NCI-60 panel screen highlighted the important role that the Hedgehog pathway plays in breast and prostate cancer (Table 1). […] These findings underscore the broad importance of Hedgehog signaling in carcinogenesis.

The subject of the next data set is A549. Kind of data set: NCI-60 panel screen, growth inhibition. In kind it is cell-based, human. The note with it: NSCLC.
Description: as §1, §2

The subject of the next data set is HCT-116. Kind of data set: NCI-60 panel screen, growth inhibition. It counts as cell-based, human. The note with it: Colon.
Description: as §1, §2

A further data set deals with EKVX. Kind of data set: NCI-60 panel screen, growth inhibition. In kind it is cell-based, human. The note with it: NSCLC.
Description: as §1, §2

The test system of a further data set is KM12. Kind of data set: NCI-60 panel screen, growth inhibition. The note with it: Colon. It counts as cell-based, human.
Description: as §1, §2

In the next data set the test system is RXF 393. Nature of the data set: NCI-60 panel screen, growth inhibition. In kind it is cell-based, human. The note with it: Renal.
Description: as §1, §2

The next data set concerns SNB-75. Kind of data set: NCI-60 panel screen, growth inhibition. It counts as cell-based, human. The note with it: Central Nervous System.
Description: as §1, §2

In another data set the test system is HS 578T. Nature of the data set: NCI-60 panel screen, growth inhibition. It counts as cell-based, human. The note with it: Breast.
Description: as §1, §2

The subject of the next data set is 786-0. Kind of data set: NCI-60 panel screen, growth inhibition. The note with it: Renal. It counts as cell-based, human.
Description: as §1, §2

For the next data set, the system named is UO-31. Kind of data set: NCI-60 panel screen, growth inhibition. In kind it is cell-based, human. The note with it: Renal.
Description: as §1, §2

In a further data set the test system is SF-295. Kind of data set: NCI-60 panel screen, growth inhibition. It counts as cell-based, human. The note with it: Central Nervous System.
Description: as §1, §2

Another data set relates to CAKI-1. Kind of data set: NCI-60 panel screen, growth inhibition. The note with it: Renal. In kind it is cell-based, human.
Description: as §1, §2

The next data set relates to BT-549. Kind of data set: NCI-60 panel screen, growth inhibition. In kind it is cell-based, human. The note with it: Breast.
Description: as §1, §2

In another data set the test system is K-562. Kind of data set: NCI-60 panel screen, growth inhibition. It counts as cell-based, human. The note with it: Leukemia.
Description: as §1, §2

Another data set has as its system LOX IMVI. Nature of the data set: NCI-60 panel screen, growth inhibition. In kind it is cell-based, human. The note with it: Melanoma.
Description: as §1, §2

A further data set has as its system TK-10. Nature of the data set: NCI-60 panel screen, growth inhibition. In kind it is cell-based, human. The note with it: Renal.
Description: as §1, §2

Another data set deals with OVCAR-8. Kind of data set: NCI-60 panel screen, growth inhibition. In kind it is cell-based, human. The note with it: Ovarian.
Description: as §1, §2

The subject of the next data set is MCF7. Kind of data set: NCI-60 panel screen, growth inhibition. The note with it: Breast. In kind it is cell-based, human.
Description: as §1, §2

The next data set relates to NCI-H460. Kind of data set: NCI-60 panel screen, growth inhibition. The note with it: NSCLC. It counts as cell-based, human.
Description: as §1, §2

A further data set concerns SK-MEL-5. Kind of data set: NCI-60 panel screen, growth inhibition. In kind it is cell-based, human. The note with it: Melanoma.
Description: as §1, §2

A further data set concerns SW-620. Nature of the data set: NCI-60 panel screen, growth inhibition. The note with it: Colon. In kind it is cell-based, human.
Description: as §1, §2

The subject of the next data set is HCT-15. Kind of data set: NCI-60 panel screen, growth inhibition. It counts as cell-based, human. The note with it: Colon.
Description: as §1, §2

The next data set deals with DU-145. Nature of the data set: NCI-60 panel screen, growth inhibition. The note with it: Prostate. It counts as cell-based, human.
Description: as §1, §2

A further data set has as its system PC-3. Kind of data set: NCI-60 panel screen, growth inhibition. In kind it is cell-based, human. The note with it: Prostate.
Description: as §1, §2

The subject of the next data set is NCI/ADR-RES. Nature of the data set: NCI-60 panel screen, growth inhibition. It counts as cell-based, human. The note with it: Breast.
Description: as §1, §2

Another data set has as its system COLO 205. Kind of data set: NCI-60 panel screen, growth inhibition. It counts as cell-based, human. The note with it: Colon.
Description: as §1, §2

The next data set deals with NCI-H522. Kind of data set: NCI-60 panel screen, growth inhibition. The note with it: NSCLC. It counts as cell-based, human.
Description: as §1, §2

The test system of another data set is MDA-MB-231/ATCC. Kind of data set: NCI-60 panel screen, growth inhibition. In kind it is cell-based, human. The note with it: Breast.
Description: as §1, §2

The subject of the next data set is ACHN. Nature of the data set: NCI-60 panel screen, growth inhibition. It counts as cell-based, human. The note with it: Renal.
Description: as §1, §2

The next data set has as its system UACC-62. Nature of the data set: NCI-60 panel screen, growth inhibition. It counts as cell-based, human. The note with it: Melanoma.
Description: as §1, §2

For a further data set, the system named is NCI-H23. Kind of data set: NCI-60 panel screen, growth inhibition. The note with it: NSCLC. In kind it is cell-based, human.
Description: as §1, §2

A further data set has as its system IGROV1. Kind of data set: NCI-60 panel screen, growth inhibition. It counts as cell-based, human. The note with it: Ovarian.
Description: as §1, §2

Another data set relates to SF-268. Kind of data set: NCI-60 panel screen, growth inhibition. In kind it is cell-based, human. The note with it: Central Nervous System.
Description: as §1, §2

Another data set concerns HT29. Nature of the data set: NCI-60 panel screen, growth inhibition. It counts as cell-based, human. The note with it: Colon.
Description: as §1, §2

For the next data set, the system named is NCI-H226. Kind of data set: NCI-60 panel screen, growth inhibition. It counts as cell-based, human. The note with it: NSCLC.
Description: as §1, §2

In the next data set the test system is HL-60. Kind of data set: NCI-60 panel screen, growth inhibition. It counts as cell-based, human. The note with it: Leukemia.
Description: as §1, §2

For another data set, the system named is MOLT-4. Nature of the data set: NCI-60 panel screen, growth inhibition. The note with it: Leukemia. It counts as cell-based, human.
Description: as §1, §2

The test system of the next data set is RPMI-8226. Nature of the data set: NCI-60 panel screen, growth inhibition. It counts as cell-based, human. The note with it: Leukemia.
Description: as §1, §2

In the next data set the test system is MDA MB-435. Kind of data set: NCI-60 panel screen, growth inhibition. In kind it is cell-based, human. The note with it: Breast.
Description: as §1, §2

For another data set, the system named is SK-MEL-2. Kind of data set: NCI-60 panel screen, growth inhibition. It counts as cell-based, human. The note with it: Melanoma.
Description: as §1, §2

For a further data set, the system named is SN12C. Kind of data set: NCI-60 panel screen, growth inhibition. In kind it is cell-based, human. The note with it: Renal.
Description: as §1, §2

Another data set deals with NCI-H322M. Kind of data set: NCI-60 panel screen, growth inhibition. In kind it is cell-based, human. The note with it: NSCLC.
Description: as §1, §2

The test system of a further data set is SR. Nature of the data set: NCI-60 panel screen, growth inhibition. It counts as cell-based, human. The note with it: Leukemia.
Description: as §1, §2

The next data set deals with OVCAR-5. Kind of data set: NCI-60 panel screen, growth inhibition. It counts as cell-based, human. The note with it: Ovarian.
Description: as §1, §2

A further data set deals with SF-539. Kind of data set: NCI-60 panel screen, growth inhibition. In kind it is cell-based, human. The note with it: Central Nervous System.
Description: as §1, §2

Data set [2] deals with HOP62. Kind of data set: NCI-60 panel screen, growth inhibition. It counts as cell-based, human. The note with it: NSCLC.
Description: as §1, §2

In another data set the test system is SNB-19. Kind of data set: NCI-60 panel screen, growth inhibition. The note with it: Central Nervous System. It counts as cell-based, human.
Description: as §1, §2

The test system of a further data set is U251. Kind of data set: NCI-60 panel screen, growth inhibition. The note with it: Central Nervous System. It counts as cell-based, human.
Description: as §1, §2

In the next data set the test system is UACC-257. Kind of data set: NCI-60 panel screen, growth inhibition. The note with it: Melanoma. In kind it is cell-based, human.
Description: as §1, §2

Another data set has as its system Gli1. Nature of the data set: Gli1 knock-down by siRNA in A549 cells. In kind it is cell-based, human. The note with it: A549 cells transfected with siRNA.

Regarding `CC1=C2C[C@H]3[C@@H](CC=C4C[C@@H](O)CC[C@@]43C)[C@@H]2CC[C@]12O[C@@H]1C[C@H](C)CN[C@H]1[C@H]2C` [Cyclopamine, cyclopamine], the “Growth inhibitory activity in Gli1-transfected cells versus insertless expression vector” value in the data set on HOP62 [1] is listed as “less growth inhibitory activity”.

Take `Cc1nn(-c2ccccc2)c(C)c1/C=N/N1CCN(Cc2ccccc2)CC1` [SANT1]: the “−log [GI50]” value amounted to 4.09 in the data set with SK-MEL-28; 4.00 with A549; 4.55 with HCT-116; 4.00 in the data set with EKVX; 4.50 with KM12; 4.00 in the data set on RXF 393. Besides, the “−log [GI50]” value in the data set on SNB-75 is listed as 4.00; in the data set with HS 578T it was 4.00; in the data set on 786-0, 4.64; in the data set with UO-31 it was 4.18; in the data set with SF-295, 4.00; in the data set on CAKI-1, 4.00. Further, the “−log [GI50]” value with BT-549 is recorded as 4.32; in the data set with K-562, 4.51; with LOX IMVI it was 4.36; in the data set on TK-10, 4.54; with OVCAR-8 it was 4.00; in the data set with MCF7 it was 4.51. Also, the “−log [GI50]” value in the data set on NCI-H460 was found to be 4.47; in the data set on SK-MEL-5, 4.73; in the data set on SW-620, 4.00; in the data set with HCT-15, 4.52; in the data set on DU-145, 4.02; in the data set with PC-3 it was 4.60. Further, the “−log [GI50]” value in the data set on NCI/ADR-RES was 4.30; in the data set with COLO 205 it was 4.39; with NCI-H522, 4.11; in the data set on MDA-MB-231/ATCC it was 4.65; in the data set on ACHN it was 4.28; in the data set on UACC-62 it was 4.47. For the same molecule, the “−log [GI50]” value in the data set on NCI-H23 was determined as 4.38; in the data set on IGROV1, 5.08; in the data set on SF-268, 4.42; in the data set on HT29, 4.37; in the data set on NCI-H226, 4.56; with HL-60, 4.54. The “−log [GI50]” value in the data set on MOLT-4 is recorded as 4.57; in the data set with RPMI-8226 it was 4.70; with MDA MB-435, 4.00; in the data set with SK-MEL-2, 4.22; in the data set on SN12C, 4.00; with NCI-H322M it was 5.08. Moreover, the “−log [GI50]” value is 4.86 in the data set on SR; 4.00 in the data set with OVCAR-5; 4.12 in the data set with SF-539; 4.79 in the data set on HOP62 [2]; 4.00 in the data set with SNB-19; 4.17 in the data set with U251. Besides, in the data set on UACC-257, the “−log [GI50]” value is on record as 4.20.

In the case of “SEQ ID NO:9: siRNA having the desired Gli1 knock-down activity (Sanchez, et al. (2004)) (AACUCCACAGGCAUACAGGAU; chemistry not given here)”, the “Reduction of Gli1 levels” value in the data set on Gli1 is “approximately 90%”.

The record behind these values is patent US8273701B2, “Method for diagnosing non-small cell lung carcinoma” (Trustees of Dartmouth College, priority 2005, dated 2012).
